Patent publication US20240360114A1 (SIRONAX LTD., priority 2021, published 2024)

Tested on: HT-1080 cells
Assay: HT-1080 cell viability assay (ferroptosis induced by RSL3, Cell Titer-Glo)
Type: cell-based
Conditions: Homo sapiens, HT-1080, 20 h, ferroptosis inducer RSL3, 20 hours, ferroptosis inhibitory activity, Table 2
Procedure, shortened: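 EC50 fitted by sigmoidal dose-response regression on luminescent viability data normalized to untreated cells. Compounds ran as a 10-point, 3-fold series from 1.1 μM alongside RSL3 for 20 hours, after overnight seeding.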

Compound	EC50
Cc1nc(N2C[C@@H](C)N(CC(F)(F)F)[C@@H](C)C2)ccc1NC1C2CC3CC1CC(N)(C3)C2 (stereo partly drawn) [Compound 540, N4-(6-((3R,5S)-3,5-dimethyl-4-(2,2,2-trifluoroethyl)piperazin-1-yl)-2-methylpyridin-3-yl)adamantane-1,4-diamine]	0.1 to 100 nM
Cc1cc(NC[C@H]2CC[C@H](N)CC2)cc(C)c1N1CC(C)OC(C)C1 (stereo partly drawn) [Compound 451, (((1r,4r)-4-aminocyclohexyl)methyl)-4-(2,6-dimethylmorpholino)-3,5-dimethylaniline]	0.1 to 100 nM
Cc1cc(C)c(NC2CCC(N)CC2)c(C)c1 (stereo not drawn) [Compound 219, N1-mesitylcyclohexane-1,4-diamine]	1000 to 10000 nM
CN(C)C1CCC(NC(=O)C2CCC(Nc3ccc(C4CCC(C)(C)CC4)cc3)CC2)CC1 (single isomer, unassigned) [Compound 76A, (4-(dimethylamino)cyclohexyl)-4-((4-(4,4-dimethylcyclohexyl)phenyl)amino)cyclohexane-1-carboxamide]	0.1 to 100 nM
CC1CCN(c2ncc(NC3CCC(N)CC3)cn2)CC1 (stereo not drawn) [Compound 44, N1-(2-(4-methylpiperidin-1-yl)pyrimidin-5-yl)cyclohexane-1,4-diamine]	0.1 to 100 nM
Cc1cc(NC2CCC(C)(N)CC2)cc(C)c1C (single isomer, unassigned) [Compound 313A, 1-methyl-N4-(3,4,5-trimethylphenyl)cyclohexane-1,4-diamine]	0.1 to 100 nM
CC(C)C1CCN(c2ncc(NC[C@H]3CC[C@H](NC(=O)C4CNC(=O)C4)CC3)cn2)CC1 (stereo partly drawn) [Compound 367, N-((1r,4r)-4-(((2-(4-isopropylpiperidin-1-yl)pyrimidin-5-yl)amino)methyl)cyclohexyl)-5-oxopy rrolidine-3-carboxamide]	0.1 to 100 nM
N[C@@H]1CCC[C@H]1Nc1ccc(N2CCC(C(F)(F)F)CC2)cc1 [Compound 444, (1R,2R)-N1-(4-(4-(trifluoromethyl)piperidin-1-yl)phenyl)cyclopentane-1,2-diamine]	0.1 to 100 nM
Cc1nc(N2CC(C)OC(C)C2)ccc1NCC1CC2(CC(N)C2)C1 (stereo not drawn) [Compound 512, N-((6-aminospiro [3.3]heptan-2-yl)methyl)-6-(2,6-dimethylmorpholino)-2-methylpyridin-3-amine]	0.1 to 100 nM
CC(C)C1CCN(c2cnc(NC3CCC(N)CC3)cn2)CC1 (stereo not drawn) [Compound 399, N1-(5-(4-isopropylpiperidin-1-yl)pyrazin-2-yl)cyclohexane-1,4-diamine]	0.1 to 100 nM
NC1CCC(Nc2ccncc2)CC1 (stereo not drawn) [Compound 199, N1-(pyridin-4-yl)cyclohexane-1,4-diamine]	1000 to 10000 nM
CC1CN(c2ccc(NC3CC4(CC(N)C4)C3)c(F)c2)CC(C)O1 (stereo not drawn) [Compound 461, N2-(4-(2,6-dimethylmorpholino)-2-fluorophenyl)spiro[3.3]heptane-2,6-diamine]	0.1 to 100 nM
Cc1nc(N2CC(C)SC(C)C2)ccc1NC1CC2(CC(N)C2)C1 (stereo not drawn) [Compound 568, N2-(6-(2,6-dimethylthiomorpholino)-2-methylpyridin-3-yl)spiro[3.3]heptane-2,6-diamine]	0.1 to 100 nM
N[C@H]1CC[C@H](CCNc2ccc(N3CCC(C(F)(F)F)CC3)cc2F)CC1 [Compound 394, N-(2-((1r, 4r)-4-aminocyclohexyl)ethyl)-2-fluoro-4-(4-(trifluoromethyl)piperidin-1-yl)aniline]	0.1 to 100 nM
N[C@H]1CC[C@@H](CNc2ccc3c(c2)CCCC3)CC1 [Compound 309, N-(((1r,4r)-4-aminocyclohexyl)methyl)-5,6,7,8-tetrahydronaphthalen-2-amine]	0.1 to 100 nM
O=C1NCC(C(=O)NC2CC3(C2)CC(Nc2ccc(N4CCC(C(F)(F)F)CC4)cc2)C3)N1 (stereo not drawn) [Compound 374, 2-oxo-N-(6-((4-(4-(trifluoromethyl)piperidin-1-yl)phenyl)amino)spiro[3.3]heptan-2-yl)imidazo lidine-4-carboxamide]	0.1 to 100 nM
NCC1CCC(Nc2ccc3c(c2)CCCC3)CC1 (stereo not drawn) [Compound 286, N-(4-(aminomethyl)cyclohexyl)-5,6,7,8-tetrahydronaphthalen-2-amine]	0.1 to 100 nM
CC1(C)CC(C)(C)c2cc(NC3CCC(N)CC3)ccc21 (stereo not drawn) [Compound 325A, N1-(1,1,3,3-tetramethyl-2,3-dihydro-1H-inden-5-yl)cyclohexane-1,4-diamine]	0.1 to 100 nM

The next lines start with the values.

EC50	Compound
100 to 1000 nM	COCCOCCNc1ccc(C2CCC(C)(C)CC2)cc1 [Compound 79, 4-(4,4-dimethylcyclohexyl)-N-(2-(2-methoxyethoxy)ethyl)aniline]
0.1 to 100 nM	Cc1nc(N2CC(C)OC(C)C2)ccc1NCCCC1CCC(N)CC1 (stereo not drawn) [Compound 526, N-(3-((1r,4s)-4-aminocyclohexyl)propyl)-6-(2,6-dimethylmorpholino)-2-methyl pyridin-3-amine]
0.1 to 100 nM	CCN(CC)c1ccc(NC[C@H]2CC[C@H](N)CC2)cc1 [Compound 436]
0.1 to 100 nM	NCC1CCC(Nc2ccc(C3CCCCC3)cc2)CC1 (single isomer, unassigned) [Compound 82A, N-(4-(aminomethyl)cyclohexyl)-4-cyclohexylaniline]
0.1 to 100 nM	CN(C)C1CCC(Nc2ccc(N3CCC(C(F)(F)F)CC3)cc2)CC1 (stereo not drawn) [Compound 8, N1,N1-dimethyl-N4-(4-(4-(trifluoromethyl)piperidin-1-yl)phenyl)cyclohexane-1,4-diamine]
0.1 to 100 nM	Cc1cc(NC2CCC(N)CC2)ccc1C(C)(C)C (stereo not drawn) [Compound 217, N1-(4-(tert-butyl)-3-methylphenyl)cyclohexane-1,4-diamine]
0.1 to 100 nM	CC1CCC(Nc2ccc(N3CCC(C(F)(F)F)CC3)cc2)CC1 (stereo not drawn) [Compound 4A, N-(4-methylcyclohexyl)-4-(4-(trifluoromethyl)piperidin-1-yl)aniline]
100 to 1000 nM	CN1CCC(Nc2ccc(C3CCC(C)(C)CC3)cc2)CC1=O (stereo not drawn) [Compound 103, 4-((4-(4,4-dimethylcyclohexyl)phenyl)amino)-1-methylpiperidin-2-one]
0.1 to 100 nM	CC1(C)CCC(c2ccc(NC3CCC(O)CC3)cc2)CC1 (single isomer, unassigned) [Compound 205A, 4-((4-(4,4-dimethylcyclohexyl)phenyl)amino)cyclohexan-1-ol]
0.1 to 100 nM	CCC(C)(C)c1ccc(NC2CCC(N)(CO)CC2)cc1 (stereo not drawn) [Compound 296A, (1-amino-4-((4-(tert-pentyl)phenyl)amino)cyclohexyl)methanol]
100 to 1000 nM	CCOCCCc1ccc(NC2CCC(N)CC2)cc1 (stereo not drawn) [Compound 262, (1s,4s)-N1-(4-(3-ethoxypropyl)phenyl)cyclohexane-1,4-diamine]
0.1 to 100 nM	CC(C)(C)c1ccc(NC2CC3(CC(N)C3)C2)cc1 (stereo not drawn) [Compound 276, N2-(4-(tert-butyl)phenyl)spiro[3.3]heptane-2,6-diamine]
1000 to 10000 nM	COCCN(C)CCNc1ccc(C(C)(C)C)cc1 [Compound 211, N1-(4-(tert-butyl)phenyl)-N2-(2-methoxyethyl)-N2-methylethane-1,2-diamine]
1000 to 10000 nM	COCCc1ccc(NC2CCC(N)CC2)cc1CCOC (stereo not drawn) [Compound 352, N1-(3,4-bis(2-methoxyethyl)phenyl)cyclohexane-1,4-diamine]
100 to 1000 nM	Cc1cc(C(C)(C)C)ccc1NC1CCC(N)CC1 (stereo not drawn) [Compound 184, N1-(4-(tert-butyl)-2-methylphenyl)cyclohexane-1,4-diamine]
1000 to 10000 nM	CC(C)(C)c1ccc(NCCOCCO)cc1 [Compound 179, 2-(2-((4-(tert-butyl)phenyl)amino)ethoxy) ethan-1-ol]
0.1 to 100 nM	CC(C)(C)c1ccc(NC2CCC(NCCN)CC2)cc1 (stereo not drawn) [Compound 268, 1-N-(2-aminoethyl)-N4-(4-(tert-butyl)phenyl)cyclohexane-1,4-diamine]
100 to 1000 nM	CCCC(CCC)Nc1ccc(C(C)(C)C)cc1 [Compound 188, 4-(tert-butyl)-N-(heptan-4-yl)aniline]

Same assay, conditions: Homo sapiens, HT-1080, 20 h, ferroptosis inducer RSL3, 20 hours, ferroptosis inhibitory activity, Table 3

EC50	Compound
100 to 1000 nM	COC(C)(C)C1CCN(c2ccc(NC3CC(N)C3)c(C)n2)CC1 (stereo not drawn) [Compound 591]
0.1 to 100 nM	NC(=O)C1CC2(CC(Nc3ccc4cc(N5CCC(C(F)(F)F)CC5)ccc4c3)C2)C1 (stereo not drawn) [Compound 584, 6-((6-(4-(trifluoromethyl)piperidin-1-yl)naphthalen-2-yl)amino)spiro[3.3]heptane-2-carboxamide]
0.1 to 100 nM	C[C@@H]1CN(c2ccc(NC3CC4(CC(N)C4)C3)c(OC(F)F)n2)C[C@H](C)O1 (stereo partly drawn) [Compound 637, N^2-(2-(difluoromethoxy)-6-((25,6R)-2,6-dimethylmorpholino)pyridin-3-yl)spiro[3.3]heptane-2,6-diamine]
0.1 to 100 nM	Cc1nc(NC(C)(C)C)ccc1NC[C@H]1CC[C@H](N)CC1 [Compound 595, N^5-(((1r,4r)-4-aminocyclohexyl)methyl)-N^2-(tert-butyl)-6-methylpyridine-2,5-diamine]
0.1 to 100 nM	[2H]C1(Nc2ccc(N3C[C@@H](C)O[C@@H](C)C3)nc2C)CC2(CC(N)C2)C1 (stereo partly drawn) [Compound 645]
0.1 to 100 nM	Cc1cc(NC2CC3(CC(N)C3)C2)ccc1N1CC(C)N(C(=O)C(F)(F)F)C(C)C1 (stereo not drawn) [Compound 647, 1-(4-(4-((6-aminospiro[3.3]heptan-2-yl)amino)-2-methylphenyl)-2,6-dimethylpiperazin-1-yl)-2,2,2-trifluoroethan-1-one]

Same assay, conditions: ferroptosis inducer RSL3, 20 hours, ferroptosis inhibitory activity, Table 2

EC50	Compound
0.1 to 100 nM	CC1CN(c2ccc(NC3CC4(CC(N)C4)C3)cc2F)CC(C)N1CC(F)(F)F (stereo not drawn) [Compound 535]
0.1 to 100 nM	Cc1nc(N2CC(C)OC(C)C2)c(F)cc1NC1C2CC3CC1CC(CN)(C3)C2 (single isomer, unassigned) [Compound 539A, N-((2r,5s)-5-(aminomethyl)adamantan-2-yl)-6-(2,6-dimethylmorpholino)-5-fluoro-2-methylpyridin-3-amine]
100 to 1000 nM	Cc1nc(N2CC(C)OC(C)C2)c(F)cc1NC1C2CC3CC1CC(CN)(C3)C2 (single isomer, unassigned) [Compound 539B, N-((2r,5s)-5-(aminomethyl)adamantan-2-yl)-6-(2,6-dimethylmorpholino)-5-fluoro-2-methylpyridin-3-amine]
